The target of series [1] is T1, Mtb DnaG (Mycobacterium tuberculosis, UniProt P9WNW1).
T1 sequence (P9WNW1 1-639): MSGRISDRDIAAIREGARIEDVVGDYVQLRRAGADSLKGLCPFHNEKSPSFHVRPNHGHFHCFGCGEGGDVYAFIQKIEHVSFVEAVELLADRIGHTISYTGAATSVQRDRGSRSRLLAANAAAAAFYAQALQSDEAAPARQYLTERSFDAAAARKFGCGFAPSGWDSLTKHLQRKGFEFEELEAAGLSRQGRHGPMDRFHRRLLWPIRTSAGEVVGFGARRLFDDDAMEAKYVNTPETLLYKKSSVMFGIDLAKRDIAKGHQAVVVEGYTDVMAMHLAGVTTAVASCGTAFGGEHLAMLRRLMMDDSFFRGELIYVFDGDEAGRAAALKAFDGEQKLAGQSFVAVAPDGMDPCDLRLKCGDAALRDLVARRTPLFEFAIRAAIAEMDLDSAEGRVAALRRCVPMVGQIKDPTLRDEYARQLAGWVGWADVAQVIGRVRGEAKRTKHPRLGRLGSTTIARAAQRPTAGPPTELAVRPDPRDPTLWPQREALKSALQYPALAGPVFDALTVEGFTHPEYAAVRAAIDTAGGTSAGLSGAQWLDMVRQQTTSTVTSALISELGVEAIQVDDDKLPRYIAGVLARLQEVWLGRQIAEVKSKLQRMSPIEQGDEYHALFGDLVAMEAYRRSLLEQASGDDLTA
Put plainly: Mode of inhibition assays. It is filed as biochemical. The settings on record: for mode of inhibition: Lineweaver–Burk plots, varied NTP and DNA; for n, number of inhibitor molecules bound: alternative model with high cooperativity; for n, number of binding sites on Mtb DnaG: global fit, non-cooperative model.

In series [2] the target is T1, Mtb DnaG. Put plainly: Dose–response coupled primase–pyrophosphatase assay. The note with it: for Hill coefficient: dose–response fit, 1.25 µM DNA, 110 µM NTP, 0.5 µM Mtb DnaG.
Series [3] concerns the target T1, Mtb DnaG. In kind it is biochemical. The note with it: 10 µM inhibitor (Figure 3); gel, Figures 3 and 9.
Series [4] concerns human DNA polymerase α. The settings on record: cited from earlier work.
Series [5] relates to human primase. The note with it: cited from earlier work.
In series [6] the target is T1, Mtb DnaG. In kind it is biochemical. The note with it: for signal change in HTS: 13 µM compound, not enzyme activation but phosphate from the compound.
For series [7], the target named is T2, Mtb DnaG (DNA primase) (Mycobacterium tuberculosis H37Rv, UniProt P9WNW1 1-639).
T2 sequence: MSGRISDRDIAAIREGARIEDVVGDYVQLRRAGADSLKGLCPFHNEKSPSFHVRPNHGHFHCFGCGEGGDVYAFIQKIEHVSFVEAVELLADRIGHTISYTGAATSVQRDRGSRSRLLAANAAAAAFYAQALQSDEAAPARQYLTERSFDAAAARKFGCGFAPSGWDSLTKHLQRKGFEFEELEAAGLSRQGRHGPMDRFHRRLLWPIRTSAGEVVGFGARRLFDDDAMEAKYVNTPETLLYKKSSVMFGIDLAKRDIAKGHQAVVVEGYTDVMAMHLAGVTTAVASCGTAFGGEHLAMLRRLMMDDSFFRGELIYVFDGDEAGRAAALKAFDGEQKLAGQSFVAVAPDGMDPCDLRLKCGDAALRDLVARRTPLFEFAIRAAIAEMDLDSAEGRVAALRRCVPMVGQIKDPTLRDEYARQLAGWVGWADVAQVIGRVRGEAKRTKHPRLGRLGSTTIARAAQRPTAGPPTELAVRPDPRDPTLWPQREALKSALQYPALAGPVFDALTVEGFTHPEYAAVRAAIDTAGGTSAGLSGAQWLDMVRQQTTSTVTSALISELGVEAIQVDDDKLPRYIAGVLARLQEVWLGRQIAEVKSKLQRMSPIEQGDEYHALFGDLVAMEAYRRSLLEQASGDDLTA
Put plainly: fluorescence anisotropy.

Turning to `COc1cccc2c1C(=O)c1c(O)c3c(c(O)c1C2=O)C[C@@](O)(C(=O)CO)C[C@@H]3O[C@H]1C[C@H](N)[C@H](O)[C@H](C)O1` [doxorubicin], in series [1], the Ki was found to be 2.5 ± 0.5 µM; the mode of inhibition entry is “competitive inhibitors with respect to both NTP and DNA”; the “n, number of inhibitor molecules bound” value was 2; the “n, number of binding sites on Mtb DnaG” value is 3. Moreover, in series [2], the midpoint of inhibition, the IC50, lay at 7.7 ± 0.5 µM and the Hill coefficient came out at 2.0 ± 0.2. In addition, in series [3], the “effect on synthesis of radioactively labelled RNA products” value is “potent Mtb DnaG inhibitors”.

As for `Cc1ccc(C(=O)Nc2ccc(S(=O)(=O)O)c3cc(S(=O)(=O)O)cc(S(=O)(=O)O)c23)cc1NC(=O)c1cccc(NC(=O)Nc2cccc(C(=O)Nc3cc(C(=O)Nc4ccc(S(=O)(=O)O)c5cc(S(=O)(=O)O)cc(S(=O)(=O)O)c45)ccc3C)c2)c1` [suramin], in series [1], the Ki was 3.2 ± 0.5 µM; the mode of inhibition entry is “competitive inhibitors with respect to both NTP and DNA”; the “n, number of inhibitor molecules bound” value was found to be 3; the “n, number of binding sites on Mtb DnaG” value was determined as 4. Further, in series [4], the mode of inhibition result is “DNA- and NTP-competitive inhibitor of human DNA polymerase α and primase, respectively”. In addition, the mode of inhibition entry in series [5] is “DNA- and NTP-competitive inhibitor of human DNA polymerase α and primase, respectively”. In series [2], the 50% inhibitory concentration (IC50) came to 6.3 ± 0.2 µM and the Hill coefficient came to 2.9 ± 0.1. Moreover, the “effect on synthesis of radioactively labelled RNA products” value in series [3] is listed as “potent Mtb DnaG inhibitors”.

As to `O=c1oc2c(O)c(O)cc3c(=O)oc4c(O)c(O)cc1c4c23` [ellagic acid], in series [2], the half-maximal inhibitory concentration (IC50) was 22 ± 3 µM.

As to `O=C(O)CN(CCN(CC(=O)O)CC(=O)O)CC(=O)O` [EDTA, ethylenediaminetetraacetic acid], in series [6], the “inhibition by positive control in HTS” value is reported as “full inhibition”.

For `CC(C)N(CCC(C(N)=O)(c1ccccc1)c1ccccn1)C(C)C` (stereo not shown) [disopyramide phosphate], the “signal change in HTS” value in series [6] is recorded as “increase in absorbance”.

With `O=C(O)c1ccccc1OP(=O)(O)O` [fosfosal], the “signal change in HTS” value in series [6] is on record as “increase in absorbance”.

Regarding `CO[C@H]1C[C@H](O[C@H]2[C@H](C)[C@@H](O[C@@H]3O[C@H](C)C[C@H](N(C)C)[C@H]3O)[C@@H](C)C[C@@]3(CO3)C(=O)[C@H](C)[C@@H](O)[C@@H](C)[C@@H](C)OC(=O)[C@@H]2C)O[C@@H](C)[C@@H]1O` [oleandomycin phosphate], the “signal change in HTS” value in series [6] was “increase in absorbance”.

CCGAATCAGTCCGACGACGCATCAGCAC (ssDNA) [28-mer ssDNA]: in series [7], binding was put at a Kd of 0.036 ± 0.016 µM.

The record behind these values is publication PMC3575809 (Nucleic Acids Research, 2012).
